Biological target: Proto-oncogene tyrosine-protein kinase Src (Homo sapiens, UniProt P12931)
Experiment: Inhibition of Src

Chain of Proto-oncogene tyrosine-protein kinase Src (P12931 2-536 limits assumed): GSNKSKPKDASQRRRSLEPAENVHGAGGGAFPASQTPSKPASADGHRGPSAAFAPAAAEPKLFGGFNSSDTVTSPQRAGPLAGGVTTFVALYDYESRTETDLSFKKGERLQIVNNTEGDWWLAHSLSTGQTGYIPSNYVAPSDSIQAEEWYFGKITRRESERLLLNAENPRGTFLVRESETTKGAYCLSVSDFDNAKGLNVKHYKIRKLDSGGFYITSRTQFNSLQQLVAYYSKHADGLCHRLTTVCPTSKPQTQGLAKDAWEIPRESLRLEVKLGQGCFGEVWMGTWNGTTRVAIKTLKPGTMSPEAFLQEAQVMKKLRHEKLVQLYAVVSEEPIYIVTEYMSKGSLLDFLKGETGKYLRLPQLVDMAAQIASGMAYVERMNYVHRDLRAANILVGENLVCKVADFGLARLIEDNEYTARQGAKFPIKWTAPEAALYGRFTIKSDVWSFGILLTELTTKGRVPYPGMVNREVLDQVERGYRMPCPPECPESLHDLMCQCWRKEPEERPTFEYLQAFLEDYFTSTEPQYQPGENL

## COc1cc(Nc2c(C#N)cnc3cc(-c4ncccc4CN4CCOCC4)ccc23)c(Cl)cc1Cl
  IC50: 950 nM

— ChEMBL document CHEMBL1155307, “4-Anilino-7-pyridyl-3-quinolinecarbonitriles as Src kinase inhibitors” (Bioorg Med Chem Lett, 2009)
